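Grown in 96-well plates, cells were treated for 48 hours with each compound at five concentrations. Insufficient inhibition: endpoint recorded as highest concentration tested. GI50 = concentration required for 50% inhibition of growth.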 The source made the active and inactive calls. No stated cut-off is given here; in the data, active = GI50 up to about 1.1 µM and inactive = higher.
Assays:
Assay in all cases: NCI-60 cell line screen, 48 h
CCRF-CEM = test system: CCRF-CEM
EKVX = test system: EKVX
HCT-116 = test system: HCT-116
IGROV-1 = test system: IGROV-1
K562 = test system: K562
LOX IMVI = test system: LOX IMVI
OVCAR-4 = test system: OVCAR-4
OVCAR-5 = test system: OVCAR-5
OVCAR-8 = test system: OVCAR-8
PC-3 = test system: PC-3
RPMI-8226 = test system: RPMI-8226
SF-539 = test system: SF-539
SNB-19 = test system: SNB-19
SW-620 = test system: SW-620
T47D = test system: T47D
U-251 = test system: U-251
UACC-257 = test system: UACC-257
UO-31 = test system: UO-31
HL-60 = test system: HL-60
TK-10 = test system: TK-10

Measured: GI50

CCCc1cc(=O)oc2c3c(c4c(c12)OC(C)(C)CC4)O[C@H](C)[C@@H](C)[C@H]3O
inactive: CCRF-CEM 14.1 µM | EKVX 12.6 µM | HCT-116 15.5 µM | IGROV-1 15.6 µM | K562 2.52 µM | LOX IMVI 14.8 µM | OVCAR-4 14.2 µM | OVCAR-5 16.7 µM | OVCAR-8 15.5 µM | PC-3 10.1 µM | RPMI-8226 4.82 µM | SF-539 21.4 µM | SNB-19 16.6 µM | SW-620 17 µM | T47D 12 µM | U-251 13.9 µM | UACC-257 14.8 µM | UO-31 13.8 µM

O=C(CC(C(=O)c1ccc(F)cc1)c1ccsc1)c1cccs1 (stereo not given)
inactive: CCRF-CEM 68.9 µM | EKVX 68.9 µM | HCT-116 60.5 µM | HL-60 55.2 µM | IGROV-1 > 100 µM | K562 > 100 µM | OVCAR-4 94.8 µM | OVCAR-5 > 100 µM | OVCAR-8 > 100 µM | PC-3 57.9 µM | RPMI-8226 37.6 µM | SF-539 > 100 µM | SNB-19 > 100 µM | SW-620 > 100 µM | T47D 26.7 µM | TK-10 > 100 µM | U-251 > 100 µM | UACC-257 70.3 µM | UO-31 25.2 µM

COc1ccc2oc(C(=O)N3CC(CCl)c4ccc([N+](=O)[O-])cc43)cc2c1 (stereo not given)
active: IGROV-1 0.103 µM
inactive: EKVX 15.8 µM | HCT-116 89.1 µM | K562 > 100 µM | LOX IMVI 67 µM | OVCAR-4 15.2 µM | OVCAR-8 17.2 µM | PC-3 20.7 µM | RPMI-8226 > 100 µM | SF-539 14 µM | SNB-19 25.2 µM | SW-620 > 100 µM | T47D 53.8 µM | TK-10 33.2 µM | U-251 26 µM | UACC-257 > 100 µM | UO-31 4.45 µM

CC1(C)CC[C@]2(C(=O)O)[C@H](O)C[C@]3(C)C(=CC[C@@H]4[C@@]5(C)CC[C@H](OC6OC(C(=O)O)C(O)C(O)C6O)C(C)(C)[C@@H]5CC[C@]43C)[C@@H]2C1 (stereo not given in full)
inactive: CCRF-CEM 36.9 µM | EKVX 78.3 µM | HCT-116 > 100 µM | HL-60 22.6 µM | IGROV-1 > 100 µM | K562 95.9 µM | LOX IMVI 64.3 µM | OVCAR-4 22.3 µM | OVCAR-5 > 100 µM | OVCAR-8 65.6 µM | PC-3 > 100 µM | RPMI-8226 > 100 µM | SNB-19 52.7 µM | SW-620 > 100 µM | T47D > 100 µM | U-251 41 µM | UACC-257 > 100 µM | UO-31 17.4 µM

COC(=O)C(CNC(=O)/C=C/c1ccc(OC)c(OC)c1)NC(=O)/C=C/c1ccc(OC)c(OC)c1 (stereo not given)
inactive: CCRF-CEM > 100 µM | EKVX > 100 µM | HCT-116 > 100 µM | IGROV-1 > 100 µM | K562 > 100 µM | LOX IMVI > 100 µM | OVCAR-4 > 100 µM | OVCAR-5 > 100 µM | OVCAR-8 > 100 µM | PC-3 > 100 µM | RPMI-8226 > 100 µM | SF-539 > 100 µM | SNB-19 > 100 µM | SW-620 > 100 µM | T47D 75.7 µM | TK-10 > 100 µM | U-251 > 100 µM | UACC-257 > 100 µM | UO-31 > 100 µM

Cc1ccc(C(=O)Cc2nc3ncccc3[nH]c2=O)cc1
inactive: CCRF-CEM > 100 µM | EKVX 33.2 µM | HCT-116 30.5 µM | HL-60 > 100 µM | IGROV-1 37.2 µM | K562 > 100 µM | OVCAR-4 25.7 µM | OVCAR-5 81.5 µM | OVCAR-8 23.6 µM | PC-3 43.9 µM | RPMI-8226 59 µM | SF-539 30.5 µM | SNB-19 6.15 µM | SW-620 80 µM | T47D 45.5 µM | TK-10 29.9 µM | U-251 22.5 µM | UACC-257 40.6 µM | UO-31 32.1 µM

COC(=O)C(C)Sc1nc2cc(Cl)ccc2s1 (stereo not given)
inactive: CCRF-CEM 78.5 µM | EKVX > 100 µM | HCT-116 > 100 µM | IGROV-1 > 100 µM | K562 78.9 µM | OVCAR-4 > 100 µM | OVCAR-5 > 100 µM | OVCAR-8 > 100 µM | PC-3 > 100 µM | RPMI-8226 > 100 µM | SF-539 > 100 µM | SNB-19 > 100 µM | SW-620 > 100 µM | T47D > 100 µM | U-251 > 100 µM | UACC-257 > 100 µM | UO-31 > 100 µM

CN(C)c1ccc(/C=C2\N=C(N/N=C/c3ccccc3)NC2=O)cc1
inactive: CCRF-CEM 35.2 µM | EKVX > 100 µM | HCT-116 83.6 µM | HL-60 > 100 µM | IGROV-1 44.9 µM | OVCAR-4 60.1 µM | OVCAR-5 > 100 µM | OVCAR-8 26.3 µM | PC-3 75.3 µM | RPMI-8226 28.8 µM | SNB-19 > 100 µM | SW-620 67.9 µM | T47D 56.4 µM | TK-10 > 100 µM | U-251 60.5 µM | UACC-257 > 100 µM | UO-31 > 100 µM

O=C(/C=C/c1ccccc1)/C=N/N1C(=S)N(c2ccccc2)C(=N\c2ccccc2)/C1=N/c1ccccc1
inactive: EKVX > 100 µM | HCT-116 43.1 µM | IGROV-1 > 100 µM | K562 > 100 µM | OVCAR-5 > 100 µM | OVCAR-8 > 100 µM | PC-3 > 100 µM | RPMI-8226 > 100 µM | SF-539 > 100 µM | SNB-19 > 100 µM | SW-620 > 100 µM | T47D > 100 µM | TK-10 > 100 µM | U-251 > 100 µM | UACC-257 > 100 µM | UO-31 > 100 µM

O=C(/C=C/c1ccc(O)c(O)c1)OCC(OC(=O)/C=C/c1ccc(O)c(O)c1)C(=O)O (stereo not given)
inactive: CCRF-CEM 48 µM | EKVX > 100 µM | HCT-116 81.7 µM | IGROV-1 80.9 µM | K562 > 100 µM | LOX IMVI 92.5 µM | OVCAR-4 90.2 µM | OVCAR-5 > 100 µM | OVCAR-8 > 100 µM | PC-3 > 100 µM | RPMI-8226 > 100 µM | SF-539 > 100 µM | SNB-19 > 100 µM | SW-620 50.8 µM | T47D > 100 µM | TK-10 > 100 µM | U-251 63.7 µM | UACC-257 > 100 µM | UO-31 85.7 µM

S=c1c2cn[nH]c2nc2scc(-c3ccc(Cl)cc3)n12
inactive: CCRF-CEM 16.2 µM | EKVX 17.3 µM | HCT-116 14.2 µM | IGROV-1 > 10 µM | K562 10.9 µM | LOX IMVI 11.3 µM | OVCAR-4 43.1 µM | OVCAR-5 14.3 µM | OVCAR-8 16 µM | PC-3 12.9 µM | RPMI-8226 23.6 µM | SF-539 17.7 µM | SNB-19 23.6 µM | SW-620 9.04 µM | T47D > 10 µM | TK-10 10.6 µM | U-251 12.9 µM | UACC-257 54.6 µM | UO-31 6.24 µM

O=C(O)CC1OCC=C2C[N+]3([O-])CCC45c6ccccc6NC4C1C2CC53 (stereo not given)
inactive: EKVX > 100 µM | HCT-116 > 100 µM | HL-60 > 100 µM | IGROV-1 > 100 µM | K562 > 100 µM | LOX IMVI > 100 µM | OVCAR-4 > 100 µM | OVCAR-5 > 100 µM | OVCAR-8 > 100 µM | PC-3 > 100 µM | RPMI-8226 > 100 µM | SF-539 > 100 µM | SNB-19 > 100 µM | SW-620 > 100 µM | T47D > 100 µM | TK-10 > 100 µM | U-251 > 100 µM | UACC-257 > 100 µM | UO-31 > 100 µM

Cc1ccc(-c2cc(-c3ccccc3)nc(N)n2)c(O)c1
inactive: CCRF-CEM 3.4 µM | HCT-116 5.48 µM | HL-60 2.22 µM | K562 2.09 µM | OVCAR-4 > 100 µM | OVCAR-5 > 100 µM | OVCAR-8 62.4 µM | PC-3 > 32.9 µM | RPMI-8226 3.06 µM | SF-539 > 60.7 µM | SNB-19 32.4 µM | SW-620 > 22.7 µM | T47D > 100 µM | TK-10 > 60.1 µM | U-251 42.1 µM | UACC-257 > 100 µM | UO-31 > 100 µM

COC(=O)c1sc2c(Cl)c(Cl)sc2c1Cl
inactive: CCRF-CEM > 100 µM | EKVX > 100 µM | HCT-116 > 100 µM | HL-60 > 100 µM | IGROV-1 > 100 µM | K562 > 100 µM | LOX IMVI > 100 µM | OVCAR-4 > 100 µM | OVCAR-5 > 100 µM | OVCAR-8 > 100 µM | PC-3 > 100 µM | SF-539 66.7 µM | SNB-19 > 100 µM | SW-620 > 100 µM | T47D > 100 µM | TK-10 24.2 µM | U-251 97.5 µM | UACC-257 > 100 µM | UO-31 > 100 µM

CC(C)c1cc(C(C)C)c(S(=O)(=O)N/N=C2\CC3CCC2(C)C3(C)C)c(C(C)C)c1 (stereo not given)
inactive: CCRF-CEM 4.69 µM | EKVX 11 µM | HCT-116 17.8 µM | IGROV-1 27.3 µM | K562 8.53 µM | OVCAR-4 29 µM | OVCAR-5 48 µM | OVCAR-8 > 100 µM | PC-3 18.3 µM | RPMI-8226 3.08 µM | SNB-19 27.5 µM | SW-620 57.1 µM | T47D 11.8 µM | TK-10 38.8 µM | U-251 23.3 µM | UACC-257 4.84 µM | UO-31 30.4 µM

Source: ChEMBL document CHEMBL1201862, “PubChem BioAssay data set” (2004)
